Reference: PubChem BioAssay AID2060905 (Molecular Pharmacology Branch, DTP, NCI, 2025)

System: 282377-053-R-J1-PDC complex spheroid viability
Experiment: Anticancer human tumor 282377-053-R-J1-PDC patient-derived colon adenocarcinoma cell line growth inhibition [RAS]
Conditions: for IC50: curve of first compound; for viability, T/C: stronger effect = lower value
In short: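 Multi-cell-type spheroids: tumor cells plus HUVEC endothelial cells and mesenchymal stem cells. RAS-pathway inhibitors were combined with targeted agents, each dosed in half-log steps down from clinical Cmax, or from 10 microM when Cmax was unknown.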

[1] = second compound 0.00316 µM, first compound 0.0316 µM
[2] = second compound 0.00316 µM, first compound 0.1 µM
[3] = second compound 0.00316 µM, first compound 0.316 µM
[4] = second compound 0.00316 µM, first compound 1 µM
[5] = second compound 0.01 µM, first compound 0.0316 µM
[6] = second compound 0.01 µM, first compound 0.1 µM
[7] = second compound 0.01 µM, first compound 0.316 µM
[8] = second compound 0.01 µM, first compound 1 µM
[9] = second compound 0.0316 µM, first compound 0.0316 µM
[10] = second compound 0.0316 µM, first compound 0.1 µM
[11] = second compound 0.0316 µM, first compound 0.316 µM
[12] = second compound 0.0316 µM, first compound 1 µM
[13] = second compound 0.1 µM, first compound 0.0316 µM
[14] = second compound 0.1 µM, first compound 0.1 µM
[15] = second compound 0.1 µM, first compound 0.316 µM
[16] = second compound 0.1 µM, first compound 1 µM
[17] = second compound 0.316 µM, first compound 0.0316 µM
[18] = second compound 0.316 µM, first compound 0.1 µM
[19] = second compound 0.316 µM, first compound 0.316 µM
[20] = second compound 0.316 µM, first compound 1 µM
[21] = second compound 1 µM, first compound 0.0316 µM
[22] = second compound 1 µM, first compound 0.1 µM
[23] = second compound 1 µM, first compound 0.316 µM
[24] = second compound 1 µM, first compound 1 µM
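Further: spheroids exposed to agents for seven days before readout.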
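Wherever viability, T/C is given: luminescence viability as percent of DMSO vehicle control wells.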

Q: What does the source list for `CC(=O)OC12COC1CC(O)C1(C)C(=O)C(O)C3=C(C)C(OC(=O)C(O)C(NC(=O)OC(C)(C)C)c4ccccc4)CC(O)(C(OC(=O)c4ccccc4)C21)C3(C)C` (centres undefined) + C=CC(=O)N1CCN(c2nc(OCC3CCCN3C)nc3c(F)c(-c4nc(N)cc(C)c4C(F)(F)F)c(Cl)cc23)C(C)C1?
A: IC50 (second compound 0.00316 µM): < 31.6 nM; IC50 (second compound 0.01 µM): < 31.6 nM; IC50 (second compound 0.0316 µM): < 31.6 nM; IC50 (second compound 0.1 µM): < 31.6 nM; IC50 (second compound 0.316 µM): < 31.6 nM; IC50 (second compound 1 µM): < 31.6 nM; viability, T/C [1]: 24.3%; viability, T/C [2]: 19.9%; viability, T/C [3]: 16.3%; viability, T/C [4]: 29.4%; viability, T/C (second compound 0.00316 µM, first compound 3.16 µM): 39.7%; viability, T/C (second compound 0.00316 µM, first compound 10 µM): 54.2%; viability, T/C [5]: 25.9%; viability, T/C [6]: 18%; viability, T/C [7]: 22.7%; viability, T/C [8]: 27.5%; viability, T/C (second compound 0.01 µM, first compound 3.16 µM): 38.6%; viability, T/C (second compound 0.01 µM, first compound 10 µM): 51.8%; viability, T/C [9]: 22.9%; viability, T/C [10]: 20.5%; viability, T/C [11]: 18.1%; viability, T/C [12]: 26.9%; viability, T/C (second compound 0.0316 µM, first compound 3.16 µM): 34.2%; viability, T/C (second compound 0.0316 µM, first compound 10 µM): 57.8%; viability, T/C [13]: 24.1%; viability, T/C [14]: 21.2%; viability, T/C [15]: 20.1%; viability, T/C [16]: 28.1%; viability, T/C (second compound 0.1 µM, first compound 3.16 µM): 38.4%; viability, T/C (second compound 0.1 µM, first compound 10 µM): 57.3%; viability, T/C [17]: 22%; viability, T/C [18]: 21.6%; viability, T/C [19]: 24.1%; viability, T/C [20]: 25.5%; viability, T/C (second compound 0.316 µM, first compound 3.16 µM): 45.7%; viability, T/C (second compound 0.316 µM, first compound 10 µM): 53.6%; viability, T/C [21]: 27.8%; viability, T/C [22]: 19.3%; viability, T/C [23]: 28.1%; viability, T/C [24]: 38%; viability, T/C (second compound 1 µM, first compound 3.16 µM): 44%; viability, T/C (second compound 1 µM, first compound 10 µM): 58.6%

Q: Which IC50 (second compound 0.00316 µM) does the source give for `Nc1ccn(C2OC(CO)C(O)C2(F)F)c(=O)n1` (centres undefined) + C=CC(=O)N1CCN(c2nc(OCC3CCCN3C)nc3c(F)c(-c4nc(N)cc(C)c4C(F)(F)F)c(Cl)cc23)C(C)C1 here?
A: 266 nM

Q: What about the IC50 (second compound 0.01 µM) of the same molecule?
A: 257 nM

Q: What about the IC50 (second compound 0.0316 µM) of the same molecule?
A: 215 nM

Q: What about the IC50 (second compound 0.1 µM) of the same molecule?
A: 278 nM

Q: What about the IC50 (second compound 0.316 µM) of the same molecule?
A: 243 nM

Q: And the IC50 (second compound 1 µM)?
A: 580 nM

Q: What about the viability, T/C (second compound 0.00316 µM, first compound 0.00316 µM) of the same molecule?
A: 108%

Q: What about the viability, T/C (second compound 0.00316 µM, first compound 0.01 µM) of the same molecule?
A: 98.9%

Q: And the viability, T/C [1]?
A: 99%

Q: And the viability, T/C [2]?
A: 80.1%

Q: And the viability, T/C [3]?
A: 44.1%

Q: And the viability, T/C [4]?
A: 31.6%

Q: And the viability, T/C (second compound 0.01 µM, first compound 0.00316 µM)?
A: 98.3%

Q: What about the viability, T/C (second compound 0.01 µM, first compound 0.01 µM) of the same molecule?
A: 111%

Q: What about the viability, T/C [5] of the same molecule?
A: 102%

Q: And the viability, T/C [6]?
A: 72.4%

Q: And the viability, T/C [7]?
A: 47.8%

Q: What about the viability, T/C [8] of the same molecule?
A: 35%

Q: What about the viability, T/C (second compound 0.0316 µM, first compound 0.00316 µM) of the same molecule?
A: 117%

Q: What about the viability, T/C (second compound 0.0316 µM, first compound 0.01 µM) of the same molecule?
A: 110%

Q: And the viability, T/C [9]?
A: 118%

Q: What about the viability, T/C [10] of the same molecule?
A: 69.2%

Q: What about the viability, T/C [11] of the same molecule?
A: 46.9%

Q: And the viability, T/C [12]?
A: 33.8%

Q: What about the viability, T/C (second compound 0.1 µM, first compound 0.00316 µM) of the same molecule?
A: 90.1%

Q: And the viability, T/C (second compound 0.1 µM, first compound 0.01 µM)?
A: 101%

Q: And the viability, T/C [13]?
A: 101%

Q: What about the viability, T/C [14] of the same molecule?
A: 79.8%

Q: What about the viability, T/C [15] of the same molecule?
A: 47.2%

Q: What about the viability, T/C [16] of the same molecule?
A: 34.4%

Q: And the viability, T/C (second compound 0.316 µM, first compound 0.00316 µM)?
A: 117%

Q: What about the viability, T/C (second compound 0.316 µM, first compound 0.01 µM) of the same molecule?
A: 125%

Q: What about the viability, T/C [17] of the same molecule?
A: 107%

Q: And the viability, T/C [18]?
A: 65.6%

Q: And the viability, T/C [19]?
A: 52.2%

Q: And the viability, T/C [20]?
A: 32.9%

Q: And the viability, T/C (second compound 1 µM, first compound 0.00316 µM)?
A: 101%

Q: What about the viability, T/C (second compound 1 µM, first compound 0.01 µM) of the same molecule?
A: 101%

Q: What about the viability, T/C [21] of the same molecule?
A: 99%

Q: And the viability, T/C [22]?
A: 88%

Q: What about the viability, T/C [23] of the same molecule?
A: 65.3%

Q: What about the viability, T/C [24] of the same molecule?
A: 36.5%
